PubChem BioAssay (NCI)
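Where inhibition never reached the appropriate level, the endpoint shown equals the highest concentration tested. Otherwise, values were interpolated linearly from a five-concentration, 48-hour dose response in 96-well plates. GI50 is the concentration that inhibits growth by half. TGI denotes the concentration required for complete inhibition of growth.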

What follows are molecules tested on LXFL 529 NSCLC (assay: NCI tumour cell line growth inhibition, 48 h).

| SMILES | TGI | GI50 |
| --- | --- | --- |
| Nc1n[nH]c(=O)c2c1c(I)cn2C1OC(CO)C(O)C1O (configuration not stated) | > 100 µM |  |
| O=C(Nc1ccc([N+](=O)[O-])cc1[N+](=O)[O-])C(=O)C(C(=O)c1ccc2ccccc2c1)C1OC(=O)c2ccccc21 (configuration not stated) | 26 µM |  |
| COc1ccc2c(c1)CCCN2CCCCCCCCCCN(CCC(C)C)CCC(C)C | 21.8 µM |  |
| N=C1C(=N)c2ccccc2-c2ccccc21.N=C1C(=N)c2ccccc2-c2ccccc21.N=C1C(=N)c2ccccc2-c2ccccc21.[Cl-].[Ru+2] | 3.08 µM | 1.61 µM |
| CCCOC(=O)CNC(=O)OC(C)(C)C | > 100 µM |  |

The molecules below were run on DMS 114 small cell lung (assay: NCI tumour cell line growth inhibition, 48 h).

| SMILES | TGI | GI50 |
| --- | --- | --- |
| Nc1n[nH]c(=O)c2c1c(I)cn2C1OC(CO)C(O)C1O (configuration not stated) | 6.62 µM |  |
| O=C(Nc1ccc([N+](=O)[O-])cc1[N+](=O)[O-])C(=O)C(C(=O)c1ccc2ccccc2c1)C1OC(=O)c2ccccc21 (configuration not stated) | 45.1 µM |  |
| COc1cc(/C=C/C(=O)Oc2ccc(NC(C)=O)cc2)ccc1C(=O)O/C=C/c1ccccc1 | > 100 µM |  |
| COc1ccc2c(c1)CCCN2CCCCCCCCCCN(CCC(C)C)CCC(C)C | 19.5 µM |  |
| O=P1(c2ccccc2)Nc2ccccc2SSc2ccccc2N1 | 43 µM |  |
| N=C1C(=N)c2ccccc2-c2ccccc21.N=C1C(=N)c2ccccc2-c2ccccc21.N=C1C(=N)c2ccccc2-c2ccccc21.[Cl-].[Ru+2] | 3.07 µM | 1.63 µM |
| CN(C)C(=O)/C=C/c1c[nH]c(=O)[nH]c1=O | > 500 µM |  |
| CCCOC(=O)CNC(=O)OC(C)(C)C | > 100 µM |  |
| CN(C)CCNC(=O)c1cccc2ccc(-c3ccc(F)cc3)nc12 | 17.8 µM |  |

Each molecule was assayed on MDA-MB-231 breast (assay: NCI tumour cell line growth inhibition, 48 h).

| SMILES | TGI | GI50 |
| --- | --- | --- |
| COc1ccc(-c2nc3ncccn3c2-c2ccc(SC)cc2)cc1 | > 100 µM |  |
| C[C@H]1C(=O)O[C@@H]2CCN3CC=C(COC(=O)[C@](C)(O)[C@@]1(C)O)[C@H]23 | > 100 µM |  |
| CCOC(=O)c1c2c(n(Cc3ccccc3)c1C)C(=O)C(=O)c1ccccc1-2 | 1.99 µM |  |
| CN(C)CCCn1cnc2cc(Cl)c(Cl)cc21 | > 100 µM |  |
| NCCCn1c2c(c3ccc([N+](=O)[O-])cc3c1=O)C(=O)c1ccccc1-2 | 0.472 µM | 0.136 µM |
| O=C1NI(C#Cc2ccccc2)c2ccccc21 | > 100 µM |  |
| CCc1nc(N)nc(N)c1-c1ccc([N+](C)(C)C)cc1 | > 100 µM |  |
| Cc1cc2c(cc1C(=O)c1ccc(N)cc1)OCO2 | > 100 µM |  |
| NCCc1cc(O)c(O)cc1O | 44.6 µM |  |
| COc1ccc(C2=C3SC=c4ccccc4=C3ON=C2c2ccccc2)cc1 | > 100 µM |  |
| CC(=O)NNc1nc(-c2ccc([N+](=O)[O-])cc2)c(C#N)c(=O)n1C | 34.2 µM |  |

Each molecule was assayed on SN12K1 renal (assay: NCI tumour cell line growth inhibition, 48 h).

| SMILES | TGI |
| --- | --- |
| COc1cc(/C=C/C(=O)Oc2ccc(NC(C)=O)cc2)ccc1C(=O)O/C=C/c1ccccc1 | > 100 µM |
| O=P1(c2ccccc2)Nc2ccccc2SSc2ccccc2N1 | 30.7 µM |
| CN(C)C(=O)/C=C/c1c[nH]c(=O)[nH]c1=O | > 500 µM |
| CN(C)CCNC(=O)c1cccc2ccc(-c3ccc(F)cc3)nc12 | 12.2 µM |

Each molecule was assayed on P388 leukemia (assay: NCI tumour cell line growth inhibition, 48 h).

| SMILES | TGI |
| --- | --- |
| COc1cc(/C=C/C(=O)Oc2ccc(NC(C)=O)cc2)ccc1C(=O)O/C=C/c1ccccc1 | > 100 µM |
| O=P1(c2ccccc2)Nc2ccccc2SSc2ccccc2N1 | > 38.6 µM |
| CN(C)C(=O)/C=C/c1c[nH]c(=O)[nH]c1=O | > 281 µM |
| CN(C)CCNC(=O)c1cccc2ccc(-c3ccc(F)cc3)nc12 | 3.66 µM |

What follows are molecules tested on RXF-631 renal (assay: NCI tumour cell line growth inhibition, 48 h).

| SMILES | TGI |
| --- | --- |
| Nc1n[nH]c(=O)c2c1c(I)cn2C1OC(CO)C(O)C1O (configuration not stated) | 7.36 µM |
| O=C(Nc1ccc([N+](=O)[O-])cc1[N+](=O)[O-])C(=O)C(C(=O)c1ccc2ccccc2c1)C1OC(=O)c2ccccc21 (configuration not stated) | 66.3 µM |
| COc1ccc2c(c1)CCCN2CCCCCCCCCCN(CCC(C)C)CCC(C)C | 27.3 µM |
| CCCOC(=O)CNC(=O)OC(C)(C)C | > 100 µM |

These molecules were tested on HS 578T breast (assay: NCI tumour cell line growth inhibition, 48 h).

| SMILES | TGI | GI50 |
| --- | --- | --- |
| COc1ccc(-c2nc3ncccn3c2-c2ccc(SC)cc2)cc1 | 7.7 µM |  |
| C[C@H]1C(=O)O[C@@H]2CCN3CC=C(COC(=O)[C@](C)(O)[C@@]1(C)O)[C@H]23 | > 100 µM |  |
| CCOC(=O)c1c2c(n(Cc3ccccc3)c1C)C(=O)C(=O)c1ccccc1-2 | 2.19 µM |  |
| CN(C)CCCn1cnc2cc(Cl)c(Cl)cc21 | > 100 µM |  |
| NCCCn1c2c(c3ccc([N+](=O)[O-])cc3c1=O)C(=O)c1ccccc1-2 | 2.29 µM | 0.657 µM |
| O=C1NI(C#Cc2ccccc2)c2ccccc21 | > 100 µM |  |
| CCc1nc(N)nc(N)c1-c1ccc([N+](C)(C)C)cc1 | > 100 µM |  |
| Cc1cc2c(cc1C(=O)c1ccc(N)cc1)OCO2 | > 100 µM |  |
| NCCc1cc(O)c(O)cc1O | > 100 µM | 34.4 µM |
| COc1ccc(C2=C3SC=c4ccccc4=C3ON=C2c2ccccc2)cc1 | > 100 µM |  |
| CC(=O)NNc1nc(-c2ccc([N+](=O)[O-])cc2)c(C#N)c(=O)n1C | 99.5 µM |  |

The molecules below were run on P388/ADR leukemia (assay: NCI tumour cell line growth inhibition, 48 h).

| SMILES | TGI |
| --- | --- |
| COc1cc(/C=C/C(=O)Oc2ccc(NC(C)=O)cc2)ccc1C(=O)O/C=C/c1ccccc1 | > 100 µM |
| O=P1(c2ccccc2)Nc2ccccc2SSc2ccccc2N1 | 31.2 µM |
| CN(C)C(=O)/C=C/c1c[nH]c(=O)[nH]c1=O | > 281 µM |
| CN(C)CCNC(=O)c1cccc2ccc(-c3ccc(F)cc3)nc12 | 5.17 µM |

What follows are molecules tested on DMS 273 small cell lung (assay: NCI tumour cell line growth inhibition, 48 h).

| SMILES | TGI | GI50 |
| --- | --- | --- |
| Nc1n[nH]c(=O)c2c1c(I)cn2C1OC(CO)C(O)C1O (configuration not stated) | 2.63 µM |  |
| O=C(Nc1ccc([N+](=O)[O-])cc1[N+](=O)[O-])C(=O)C(C(=O)c1ccc2ccccc2c1)C1OC(=O)c2ccccc21 (configuration not stated) | 61.4 µM |  |
| COc1cc(/C=C/C(=O)Oc2ccc(NC(C)=O)cc2)ccc1C(=O)O/C=C/c1ccccc1 | > 100 µM |  |
| COc1ccc2c(c1)CCCN2CCCCCCCCCCN(CCC(C)C)CCC(C)C | 23.2 µM |  |
| O=P1(c2ccccc2)Nc2ccccc2SSc2ccccc2N1 | 33.7 µM |  |
| N=C1C(=N)c2ccccc2-c2ccccc21.N=C1C(=N)c2ccccc2-c2ccccc21.N=C1C(=N)c2ccccc2-c2ccccc21.[Cl-].[Ru+2] | 5.45 µM | 2.15 µM |
| CN(C)C(=O)/C=C/c1c[nH]c(=O)[nH]c1=O | > 500 µM |  |
| CCCOC(=O)CNC(=O)OC(C)(C)C | > 100 µM |  |
| CN(C)CCNC(=O)c1cccc2ccc(-c3ccc(F)cc3)nc12 | 11.8 µM |  |

The molecules below were run on T-47D breast (assay: NCI tumour cell line growth inhibition, 48 h).

| SMILES | TGI | GI50 |
| --- | --- | --- |
| C[C@H]1C(=O)O[C@@H]2CCN3CC=C(COC(=O)[C@](C)(O)[C@@]1(C)O)[C@H]23 | > 100 µM |  |
| CCOC(=O)c1c2c(n(Cc3ccccc3)c1C)C(=O)C(=O)c1ccccc1-2 | 2.19 µM |  |
| CN(C)CCCn1cnc2cc(Cl)c(Cl)cc21 | > 100 µM |  |
| O=C1NI(C#Cc2ccccc2)c2ccccc21 | > 100 µM |  |
| CCc1nc(N)nc(N)c1-c1ccc([N+](C)(C)C)cc1 | > 100 µM |  |
| Cc1cc2c(cc1C(=O)c1ccc(N)cc1)OCO2 | > 100 µM |  |
| NCCc1cc(O)c(O)cc1O | 73.2 µM |  |
| COc1ccc(C2=C3SC=c4ccccc4=C3ON=C2c2ccccc2)cc1 | > 100 µM |  |
| CC(=O)NNc1nc(-c2ccc([N+](=O)[O-])cc2)c(C#N)c(=O)n1C | > 100 µM |  |
| COc1cc(C2CC(c3cccc(Nc4ccncc4)c3)=NN2c2ccc(Cl)cc2)cc(OC)c1OC (configuration not stated) | 4.23 µM | 1.79 µM |

These molecules were tested on HOP-18 NSCLC (assay: NCI tumour cell line growth inhibition, 48 h).

| SMILES | TGI | GI50 |
| --- | --- | --- |
| Nc1n[nH]c(=O)c2c1c(I)cn2C1OC(CO)C(O)C1O (configuration not stated) | > 100 µM |  |
| COc1cc(/C=C/C(=O)Oc2ccc(NC(C)=O)cc2)ccc1C(=O)O/C=C/c1ccccc1 | > 100 µM |  |
| COc1ccc2c(c1)CCCN2CCCCCCCCCCN(CCC(C)C)CCC(C)C | 24.7 µM |  |
| O=P1(c2ccccc2)Nc2ccccc2SSc2ccccc2N1 | 36.6 µM |  |
| N=C1C(=N)c2ccccc2-c2ccccc21.N=C1C(=N)c2ccccc2-c2ccccc21.N=C1C(=N)c2ccccc2-c2ccccc21.[Cl-].[Ru+2] | 7.76 µM | 3.14 µM |
| CN(C)C(=O)/C=C/c1c[nH]c(=O)[nH]c1=O | > 500 µM |  |
| CCCOC(=O)CNC(=O)OC(C)(C)C | > 100 µM |  |
| CN(C)CCNC(=O)c1cccc2ccc(-c3ccc(F)cc3)nc12 | 54.1 µM |  |
